Key:
[1] = oral absorption / bioavailability of isovaleramide; details: in vivo
[2] = test system: chronic spinalized rats; assay: observational scoring of hyperreflexia elicited by an innocuous stimulus in chronic spinalized rats; type: in vivo; details: 300 mg/kg i.p.
Method: (§1) Assessment of hyperreflexia, pain, and muscle tone in chronic spinally transected rats was conducted using male albino Holtzman-derived rats (available from Harlan Sprague-Dawley Laboratories) weighing 270-530 grams as subjects. The rats were housed independently and had continuous access to food and water throughout the experiments. All procedures were reviewed and approved by the Institutional Animal Care and Use Committee. Animals were anesthetized using a mixture of isoflurane and oxygen at a flow rate of 4 liters/minute.
(§2) The rats were placed in a stereotaxic frame and anesthesia was maintained. An incision was made so that the paraspinal muscles could be retracted and a laminectomy performed between T6-T9. A one- to two-millimeter portion of the spinal cord was removed by evacuation and replaced with gel foam to reduce bleeding, after which the incision was closed in layers.
Following the transection, rats were placed in a room in which the ambient temperature was raised to about 80° F. with a space heater to maintain body temperature. On the following morning post-surgery, the hindquarters of the spinalized rats were bathed and their urine expressed manually by applying pressure to their bladders. Experiments were conducted between 21 and 28 days after surgery. For the first two weeks post-surgery, 0.25 ml of the antibiotic Sulfatrim Pediatric Suspension was orally administered to the rats to prevent bladder infection. […] Within approximately two weeks, all animals regained bladder control and were no longer given antibiotic treatment. […]
Initial assessment of hyperreflexia was performed by the subjective scoring method of rating the resulting hyperreflexia response elicited with an innocuous stimulus, such as a metal probe. […] The response was evaluated for each of four trials using a scale ranging from zero (no response in all four trials) to four (a maximum, tonic-clonic reaction elicited in all four trials). […] The raw or normalized scores were analyzed with a one-way repeated measures ANOVA. […]

[3] = test system: mice; assay: hot plate test in mice (foot licking latency); type: in vivo; details: 600 orally, 60 minutes after administration, hot plate 54° C., compared to vehicle
[4] = test system: chronic spinalized rats; assay: polysynaptic flexor-reflex responses (EMG) in chronic spinalized rats; type: in vivo; details: for total reduction of the flexor reflex (total area under the curve): two-hour measurement period, several doses, vs vehicle
Method: as §1, §2
Following the transection, rats were placed in a room in which the ambient temperature was raised to about 80° F. with a space heater to maintain body temperature. On the following morning post-surgery, the hindquarters of the spinalized rats were bathed and their urine expressed manually by applying pressure to their bladders. Experiments were conducted between 21 and 28 days after surgery. For the first two weeks post-surgery, 0.25 ml of the antibiotic Sulfatrim Pediatric Suspension was orally administered to the rats to prevent bladder infection. […]
With reference to FIG. 3, polysynaptic flexor-reflex responses, elicited by stimuli that activate high-threshold afferents, were recorded as EMG activity from the ipsilateral hamstring muscle. […] The flexor reflex was recorded, in both the pre-drug and the post-drug periods, every 30 minutes once a stable baseline response was achieved. […] The responses were determined in spinalized rats by observing the flexor-reflex response before treatment and at each of 30, 60, 90, and 120 minutes following administration of isovaleramide (300 mg/kg p.o.), baclofen (10 mg/kg s.c.) and vehicle (water, 12 ml/kg p.o.), respectively. […]

[5] = test system: migraine symptoms; details: reported; cited from earlier work

SMILES | bioavailability [1] [%] | overt behavioral toxicity or motor impairment ([2]; chronic spinalized rats) | reduction of hyperreflexia scores ([2]; 15, 30, 60 and 120 minutes post-administration) | hyperreflexia scores by the next day ([2]; 1440 minutes (24 hours)) | foot licking latency [3] | magnitude of the flexor-reflex responses ([4]; 300 mg/kg p.o., 30, 60, 90 and 120 minutes, compared with baclofen 10 mg/kg s.c.) | total reduction of the flexor reflex (total area under the curve) [4] | patients with relief of the migraine symptoms [5]
CC(C)CC(N)=O [isovaleramide, Isovaleramide] | ~100 | No overt behavioral toxicity or motor impairment | 45-65% | essentially returned to baseline values | increased foot licking latency | reduce the magnitude of the flexor-reflex responses | dose-dependent reduction of the flexor reflex | 
CNS(=O)(=O)Cc1ccc2[nH]cc(CCN(C)C)c2c1 [sumatriptan] |  |  |  |  |  |  |  | approximately 40%
NCC(CC(=O)O)c1ccc(Cl)cc1 (stereo not drawn) [baclofen, reference compound] |  |  |  |  |  |  | dose-dependent reduction of the flexor reflex | 
